Reference: patent publication EP0082667A1, “Pharmaceutical compositions” (BEECHAM GROUP PLC, priority 1981, dated 1983)
Read-outs that look alike come from different tables or passages of the source.

Key:
[1] = system: KOS strain of Herpes simplex type 1 virus in Vero cell monolayers; experiment: Plaque inhibition assay of sera from dosed mice (biological assay of antiviral activity in serum); format: cell-based; conditions: inferred from comparison of serum bioassay with HPLC levels of BVDU and metabolite
Experimental: (§1) A single 100 mg/kg dose of BVDU, alone or in combination with 100 mg/kg or 200 mg/kg of probenecid, was administered as a suspension in carboxymethyl cellulose'to groups of 3 starved female Balb/c mice. Blood was collected at 30, 75 (or 85) and 120 minutes after dosing and the serum separated and stored at -20°C.
(§2) Heat inactivated sera from single mice were titrated in plaque inhibition assays using the KOS strain of Herpes simplex type 1 virus in Vero cell monolayers. Antiviral activity is calculated by extrapolation from a standard inhibition dose response curve for BVDU and is quoted as the equivalent concentration of BVDU (in pg/mL) giving the same activity in cell culture.
(§3) Mice dosed with BVDU and serum assayed at 30 and 85 minutes atter drug administration.

[2] = HPLC assay of BVDU, BVDU metabolite and probenecid in mouse serum; format: in vivo, female Balb/c mice; conditions: for concentration at 1.25 h: Experiment 2, 75 mins after dosing; for concentration at 2 h: Experiment 2, 120 mins after dosing
Experimental: as §1
Instrument: Waters H.P.L.C. Column: RCM 100 C18 Reverse Phase Radical Compression Column Solvents: Solvent (A) 0.05M Ammonium Acetate at pH4.5 Solvent (B) 80% Methanol, 10% Water, 10%(A) Conditions: 50% (B) Detector wavelength: 250 mp Solvent Flow: 1 and 3 mL/min.
Mouse serum samples (90 pL each) were treated with 16% aqueous trichloroacetic acid solution (90 µL) to deposit all proteins and the samples spun down using a micro centrifuge. The supernatant portions were assayed by injection (20 µL) into a reverse phase HPLC column). […] Under these conditions, the BVDU metabolite had retention time of 10.8 min and BVDU 11.6 min. The amounts of BVDU and Probenecid were calculated by comparison with an injected known amount of.each drug. The amounts of BVDU metabolite were calculated by assuming the same detector response as BVDU. All calculations were then extrapolated to give the amount of each component present in each serum sample in pg/mL.
as §3
Mice dosed with BVDU or combinations of BVDU and Probenecid and the serum assayed by HPLC at 30, 75 and 120 minutes after drug administration.

[3] = Plaque inhibition assay of sera from dosed mice (biological assay of antiviral activity in serum); format: cell-based, Herpes simplex type 1 virus; conditions: Experiment 1, single 100 mg/kg dose of BVDU, mouse serum, read-out: Antiviral activity in serum (BVDU equiv (µg/mL) ± Standard Deviation)
Experimental: as §1, §2, §3

[4] = system: herpes simplex virus type 1 (strain SC-16); experiment: Hairless mouse cutaneous herpesvirus model (lesion scoring); format: in vivo, adult hairless (HrHr) female mice; conditions: each x one mouse, BVDU 100mg/kg or BVDU/Probenecid 100/200mg/kg
Experimental: When hairless mice are infected with herpesvirus by dermal scaritication, vesicles appear at the site ot inoculation b days later. These rapidly coalesce to form a spreading unilateral lesion involving one hind quarter, leading eventually to ascending paralysis and death. The ettect ot treatments is assessed by a scoring method as lesions develop.
uroups ot lu adult hairless (HrHr) female mice were anaesthetized using ether and then infected with herpes simplex virus type 1 (strain SC-16) by scarifying an area =1cm^2 at a site parallel with the top of the left hind limb, just below the midline, and introducing a drop ot virus-containing solution to tnis site. single dally doses ot placebo, Bvuu (100mg/kg/dose) or a 1:2 mixture or BVDU and probenecid (100/200mg/kg/dose) were administered orally for seven days, commencing 24 hours after intection. From 4 days atter infection individual mice were examined daily and scored according to the severity ot infection.

[5] = system: herpes simplex virus type 1 (strain SC-16); experiment: Mouse ear herpesvirus model (virus replication and ear inflammation); format: in vivo, female Balb/c mice; conditions: for Virus titre (log10 p.f.u./ear) / Difference in ear thickness between uninfected and infected ears (mm x 10^-2): oral 3 x daily day 0 to day 4, BVDU 100mg/kg/dose or BVDU/Probenecid 100/200mg/kg/dose
Experimental: 1. Mouse Ear Herpesvirus Model (Reference, H.J. Field, Antimicrob. Ag. Chemother., 21, 744 (1982))
This model is based upon comparisons of viral replication in, and intlammation of, the ears of untreated or treated mice atter infection with herpesvirus.
The left pinna of female Balb/c mice were infected intradermally with 10^5 PFU of herpes simplex virus type 1 (strain SC-16) suspended in 2U^gl of Eagle minimum essential medium. The mice were treated orally 3 times daily from the time of infection until day +4 with BVDU at 100mg/kg/dose or a 1:2 mixture of BVDU and probenecid (100/200mg/kg/dose). At selected times after infection groups of three mice were killed and the ear thickness of both the left and right ears measured using a micrometer gauge. The left ears were then removed and placed individually into 3ml of phosphate buffered saline. Samples were homogenised and sonicated. After centrifugation the supernatant was removed and assayed immediately in a plaque assay in Vero cells.

[6] = Detection of BVDU and metabolite in urine of the dosed animals; format: in vivo, mice
[7] = single dose, probenecid 200 mg/kg alone or 100 or 200 mg/kg with BVDU 100 mg/kg, read-out: Concentration (µg/mL) in Serum Probenecid
[8] = Day +8, single daily oral doses for seven days
[9] = Day +11, single daily oral doses for seven days
[10] = mouse, in vivo, 100 mg/kg, single dose, BVDU 100 mg/kg alone or with probenecid 100 or 200 mg/kg, read-out: Concentration (µg/mL) in Serum BVDU

In the case of O=c1[nH]cc(/C=C/Br)c(=O)[nH]1 [BVDU Metabolite], the antiviral activity [1] is reported as “no significant antiviral activity”.
CCCN(CCC)S(=O)(=O)c1ccc(C(=O)O)cc1 [Probenecid] showed a concentration at 0.5 h ([2]; Experiment 2, 30 mins after dosing, single dose, probenecid 200 mg/kg alone or 100 or 200 mg/kg with BVDU 100 mg/kg, read-out: Concentration (µg/mL) in Serum Probenecid) of 3.8 µg/mL, a concentration at 1.25 h [2, 7] of 3.2 µg/mL and a concentration at 2 h [2, 7] of 2.3 µg/mL.
In the case of O=c1[nH]c(=O)n([C@H]2C[C@H](O)[C@@H](CO)O2)cc1/C=C/Br [BVDU, E-5-(2-bromovinyl)-2'-deoxyuridine], the concentration at 0.5 h ([3]; 30 mins after dosing) is reported as 39.8 ± 10.6 µg/mL, the concentration at 85 min ([3]; 85 mins after dosing) is reported as 4.7 ± 1.4 µg/mL and the “Mice with lesion score 2 (Scab at infection site)” value ([4]; Day +4, single daily oral doses for seven days from 24 hours after infection) is reported as “xxxxxxx”. The “Mice with lesion score 1 (1° Vesicles)” value ([4]; Day +4, single daily oral doses for seven days) was “xxx”, the “Mice with lesion score 5 (Severe spreading)” value [4, 8] was “xxxxxxx” and the “Mice with lesion score 7 (Death)” value [4, 8] was “xx”. For the same compound, the “Mice with lesion score 4 (Spreading)” value [4, 9] was “xx”, the “Mice with lesion score 5 (Severe spreading)” value [4, 9] was “xxx” and the “Mice with lesion score 7 (Death)” value [4, 9] was “xxxx”. The “Virus titre (log10 p.f.u./ear)” value ([5]; Experiment A, day 1 post inoculation) was 3.5 log10 p.f.u./ear, the “Virus titre (log10 p.f.u./ear)” value ([5]; Experiment A, day 2 post inoculation) was 3.0 log10 p.f.u./ear and the “Virus titre (log10 p.f.u./ear)” value ([5]; Experiment A, day 3 post inoculation) was 2.9 log10 p.f.u./ear. For the same compound, the “Virus titre (log10 p.f.u./ear)” value ([5]; Experiment A, day 4 post inoculation) was 3.3 log10 p.f.u./ear, the “Virus titre (log10 p.f.u./ear)” value ([5]; Experiment A, day 7 post inoculation) was 1.3 log10 p.f.u./ear and the “Virus titre (log10 p.f.u./ear)” value ([5]; Experiment B, day 1 post inoculation) was 4.1 log10 p.f.u./ear. For the same compound, the “Virus titre (log10 p.f.u./ear)” value ([5]; Experiment B, day 2 post inoculation) was 3.0 log10 p.f.u./ear, the “Virus titre (log10 p.f.u./ear)” value ([5]; Experiment B, day 3 post inoculation) was 3.3 log10 p.f.u./ear and the “Virus titre (log10 p.f.u./ear)” value ([5]; Experiment B, day 4 post inoculation) was 3.9 log10 p.f.u./ear. For the same compound, the “Virus titre (log10 p.f.u./ear)” value ([5]; Experiment B, day 7 post inoculation) was 0 log10 p.f.u./ear, the “Difference in ear thickness between uninfected and infected ears (mm x 10^-2)” value (“Difference” for short) ([5]; day 1 post inoculation) was 10.1 mm x 10^-2 and the “Difference” value ([5]; day 2 post inoculation) was 14.2 mm x 10^-2. For the same compound, the “Difference” value ([5]; day 3 post inoculation) was 13.4 mm x 10^-2, the “Difference” value ([5]; day 4 post inoculation) was 15.1 mm x 10^-2 and the “Difference” value ([5]; day 7 post inoculation) was 20.7 mm x 10^-2. For the same compound, the “Difference” value ([5]; day 8 post inoculation) was 20.8 mm x 10^-2, the “Difference” value ([5]; day 9 post inoculation) was 20.2 mm x 10^-2 and the “Difference” value ([5]; day 11 post inoculation) was 16.1 mm x 10^-2. For the same compound, the “Difference” value ([5]; day 12 post inoculation) was 14.0 mm x 10^-2, the “Difference” value ([5]; day 14 post inoculation) was 10.1 mm x 10^-2 and the ear thickness ([5]; oral 3 times daily until day +4, BVDU 100mg/kg/dose or 1:2 mixture 100/200mg/kg/dose) was “no ettect”. The concentration at 0.5 h ([2]; in vivo, Experiment 2, 30 mins after dosing, single dose, BVDU 100 mg/kg alone or with probenecid 100 or 200 mg/kg (dose in brackets in label), read-out: Concentration (µg/mL) in Serum BVDU) was 26.1 µg/mL, the concentration at 0.5 h ([2]; mouse, in vivo, 100 mg/kg, Experiment 1, 30 mins after dosing, single 100 mg/kg dose of BVDU, read-out: HPLC Determinations BVDU Conc (µg/mL) in serum) was 38 µg/mL and the concentration at 85 min ([2]; mouse, in vivo, 100 mg/kg, Experiment 1, 85 mins after dosing, single 100 mg/kg dose of BVDU, read-out: HPLC Determinations BVDU Conc (µg/mL) in serum) was 3.9 µg/mL. For the same compound, the concentration at 1.25 h [2, 10] was 13 µg/mL, the concentration at 2 h [2, 10] was 3.6 µg/mL and the “detected in the urine” value [6] was “only BVDU and none of the metabolite was detected in the urine”.
